Measurements as given in PMC7316778 (Nature Communications, 2020).
pIC50: −log10 of the molar value. Like-named read-outs stand apart in the source and are kept apart here.

What was measured:
[1] = target: AAK1 (Homo sapiens, UniProt Q2M2I8); test: SelectScreen kinase assay
Experimental: (§1) Selectivity profiling assays were performed by the Invitrogen SelectScreen™ Services. […] The concentration of ATP was selected to be equal to the KM, unless indicated otherwise.

[2] = target: BMPR1B (ALK6) (Homo sapiens, UniProt O00238); test: SelectScreen kinase assay
Experimental: as §1

[3] = target: CLK2 (Homo sapiens, UniProt P49760); test: SelectScreen kinase assay; conditions: 1 h, 1 μM WEL028, 1 h preincubation
Experimental: as §1

[4] = target: CSF1R (FMS) (Homo sapiens, UniProt P07333); test: SelectScreen kinase assay
Experimental: as §1

[5] = target: DDR2 (Homo sapiens, UniProt Q16832); test: SelectScreen kinase assay
Experimental: as §1

[6] = target: FGR (Homo sapiens, UniProt P09769); test: SelectScreen kinase assay
Experimental: as §1

[7] = target: T1, GAK (Homo sapiens, UniProt O14976); test: SelectScreen kinase assay
T1 sequence (O14976 1-1311): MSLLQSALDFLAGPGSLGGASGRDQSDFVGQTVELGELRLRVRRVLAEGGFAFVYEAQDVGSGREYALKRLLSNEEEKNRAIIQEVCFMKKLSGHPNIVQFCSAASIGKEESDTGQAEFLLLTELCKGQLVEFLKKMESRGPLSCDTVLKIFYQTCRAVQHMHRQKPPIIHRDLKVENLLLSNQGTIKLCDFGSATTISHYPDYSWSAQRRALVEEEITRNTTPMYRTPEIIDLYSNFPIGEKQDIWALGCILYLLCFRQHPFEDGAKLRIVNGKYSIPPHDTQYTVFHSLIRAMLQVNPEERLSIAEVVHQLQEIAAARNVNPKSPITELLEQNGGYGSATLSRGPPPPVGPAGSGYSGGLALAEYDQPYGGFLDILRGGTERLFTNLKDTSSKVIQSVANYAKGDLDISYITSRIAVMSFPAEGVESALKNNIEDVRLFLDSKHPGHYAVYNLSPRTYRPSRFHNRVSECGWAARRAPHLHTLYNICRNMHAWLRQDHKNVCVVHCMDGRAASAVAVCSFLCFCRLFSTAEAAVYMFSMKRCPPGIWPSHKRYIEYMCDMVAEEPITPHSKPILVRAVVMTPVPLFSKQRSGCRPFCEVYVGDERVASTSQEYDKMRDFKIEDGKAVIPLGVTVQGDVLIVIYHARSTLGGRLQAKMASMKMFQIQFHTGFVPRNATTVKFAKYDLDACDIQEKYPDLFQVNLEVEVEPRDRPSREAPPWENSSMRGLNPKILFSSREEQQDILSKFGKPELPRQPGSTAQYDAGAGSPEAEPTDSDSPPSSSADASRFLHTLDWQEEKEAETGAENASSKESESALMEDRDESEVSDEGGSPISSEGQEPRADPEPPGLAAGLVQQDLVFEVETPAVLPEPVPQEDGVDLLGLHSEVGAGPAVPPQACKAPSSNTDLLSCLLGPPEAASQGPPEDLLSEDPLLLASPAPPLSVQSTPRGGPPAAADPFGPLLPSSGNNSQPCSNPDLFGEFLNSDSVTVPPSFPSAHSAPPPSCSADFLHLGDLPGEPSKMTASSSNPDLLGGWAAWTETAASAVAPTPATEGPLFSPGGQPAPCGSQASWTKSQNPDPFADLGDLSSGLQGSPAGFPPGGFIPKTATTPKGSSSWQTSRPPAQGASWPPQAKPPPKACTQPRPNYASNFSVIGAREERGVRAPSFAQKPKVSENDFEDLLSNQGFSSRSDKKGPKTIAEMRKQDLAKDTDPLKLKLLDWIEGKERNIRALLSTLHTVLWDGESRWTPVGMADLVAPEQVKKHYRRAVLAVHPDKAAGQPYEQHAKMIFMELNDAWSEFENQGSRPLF
Experimental: as §1

[8] = target: GRK4 (Homo sapiens, UniProt P32298); test: SelectScreen kinase assay; conditions: for Inhibition at 1 µM (%): GRK4, ZLYTE, ATP Km app
Experimental: as §1

[9] = target: GRK5 (Homo sapiens, UniProt P34947); test: SelectScreen kinase assay
Experimental: as §1

[10] = target: IKBKE (IKK epsilon) (Homo sapiens, UniProt Q14164); test: SelectScreen kinase assay; conditions: 1 h, 1 μM WEL028, 1 h preincubation
Experimental: as §1

[11] = target: MAPK7 (ERK5) (Homo sapiens, UniProt Q13164); test: SelectScreen kinase assay
Experimental: as §1

[12] = target: MAPKAPK2 (Homo sapiens, UniProt P49137); test: SelectScreen kinase assay
Experimental: as §1

[13] = target: PIP5K1B (Homo sapiens, UniProt O14986); test: SelectScreen kinase assay; conditions: for Inhibition at 1 µM (%): PIP5K1B, Adapta, ATP 10
Experimental: as §1

[14] = target: ~40 kDa protein (Homo sapiens, UniProt P28482); test: Gel-based target engagement in HL-60 neutrophils; conditions: HL-60, read-out: Inhibition of off-target labeling
Experimental: Data represent means ± SEM.
The term in situ is used to designate experiments in which live cell cultures are treated with inhibitor, whereas the term in vitro refers to experiments in which the inhibitor is incubated with cell lysates. Compounds were diluted in growth medium from a 1000x concentrated stock solution in DMSO. […] After 48 h, cells were treated with compound for 1 h. Cells were collected by suspension in PBS and centrifuged (1000g, 5 min, rt). Pellets were flash-frozen in liquid nitrogen and stored at −80 °C until use. For in situ treatment post-differentiation, HL-60 cells were differentiated as described above and incubated with compound for 1 h unless specified otherwise. Cells were collected by suspension for non-adherent cells and trypsinization for adherent cells. After collection, cells were centrifuged (200g, 5 min, rt) and washed in equal volume of PBS (1000g, 5 min, rt). Cell pellets were flash-frozen in liquid nitrogen and stored at −80 °C until use.

[15] = target: endogenous FES^S700C (Homo sapiens, UniProt P07332, S700C); test: In situ target engagement in live HL-60 macrophages (WEL033 post-labeling); assay type: cell-based; parameters: endogenous in cells; host or cells: HL-60 FES^S700C clone, differentiated to macrophages or neutrophils; conditions: for Relative FES labeling (%) Mean: Supplementary Figure 13b
Text: and harvested. […] Band intensities were
Values represent means of fold enrichment (n

[16] = 1 h, 1 μM WEL028, 1 h preincubation
[17] = read-out: Inhibition at 1 µM (%)

Chain of MAPK7 (ERK5) (Q13164 whole entry): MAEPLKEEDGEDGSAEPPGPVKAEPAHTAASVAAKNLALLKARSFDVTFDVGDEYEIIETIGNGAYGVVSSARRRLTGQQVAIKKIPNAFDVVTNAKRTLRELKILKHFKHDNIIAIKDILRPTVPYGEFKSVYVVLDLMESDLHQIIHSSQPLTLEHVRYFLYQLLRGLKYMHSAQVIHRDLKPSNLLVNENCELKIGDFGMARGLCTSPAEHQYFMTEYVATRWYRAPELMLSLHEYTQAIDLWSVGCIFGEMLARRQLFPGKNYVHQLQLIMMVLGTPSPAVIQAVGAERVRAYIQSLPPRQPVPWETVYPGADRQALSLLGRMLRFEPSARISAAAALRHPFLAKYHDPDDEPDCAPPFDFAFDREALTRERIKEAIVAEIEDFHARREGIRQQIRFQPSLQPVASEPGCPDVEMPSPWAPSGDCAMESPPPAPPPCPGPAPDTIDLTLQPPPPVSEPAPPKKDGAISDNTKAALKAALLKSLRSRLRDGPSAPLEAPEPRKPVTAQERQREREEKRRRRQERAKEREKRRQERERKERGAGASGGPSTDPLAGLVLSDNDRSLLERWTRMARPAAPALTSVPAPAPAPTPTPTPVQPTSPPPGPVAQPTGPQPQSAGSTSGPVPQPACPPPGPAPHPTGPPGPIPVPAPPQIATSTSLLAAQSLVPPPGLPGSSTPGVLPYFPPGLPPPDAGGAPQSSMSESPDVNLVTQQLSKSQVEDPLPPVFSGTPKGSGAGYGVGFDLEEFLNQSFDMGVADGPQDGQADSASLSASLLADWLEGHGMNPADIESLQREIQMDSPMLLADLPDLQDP
Chain of GRK4 (P32298 whole entry): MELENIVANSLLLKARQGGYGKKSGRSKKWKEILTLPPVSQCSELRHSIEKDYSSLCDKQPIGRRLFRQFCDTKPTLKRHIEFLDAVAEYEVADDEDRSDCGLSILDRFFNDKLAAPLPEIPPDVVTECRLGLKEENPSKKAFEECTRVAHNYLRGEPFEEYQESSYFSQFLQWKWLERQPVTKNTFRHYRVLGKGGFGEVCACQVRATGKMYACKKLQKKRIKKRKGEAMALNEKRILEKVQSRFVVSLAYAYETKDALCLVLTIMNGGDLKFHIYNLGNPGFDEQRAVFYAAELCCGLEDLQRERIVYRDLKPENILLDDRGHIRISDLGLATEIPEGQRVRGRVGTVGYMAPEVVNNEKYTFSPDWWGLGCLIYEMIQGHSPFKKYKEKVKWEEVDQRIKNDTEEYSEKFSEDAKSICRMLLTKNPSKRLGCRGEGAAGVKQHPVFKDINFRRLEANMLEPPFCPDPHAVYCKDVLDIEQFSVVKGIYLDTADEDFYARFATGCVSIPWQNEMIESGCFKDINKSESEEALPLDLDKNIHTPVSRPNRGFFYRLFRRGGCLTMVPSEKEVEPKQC
Chain of endogenous FES^S700C (P07332 whole entry S700C): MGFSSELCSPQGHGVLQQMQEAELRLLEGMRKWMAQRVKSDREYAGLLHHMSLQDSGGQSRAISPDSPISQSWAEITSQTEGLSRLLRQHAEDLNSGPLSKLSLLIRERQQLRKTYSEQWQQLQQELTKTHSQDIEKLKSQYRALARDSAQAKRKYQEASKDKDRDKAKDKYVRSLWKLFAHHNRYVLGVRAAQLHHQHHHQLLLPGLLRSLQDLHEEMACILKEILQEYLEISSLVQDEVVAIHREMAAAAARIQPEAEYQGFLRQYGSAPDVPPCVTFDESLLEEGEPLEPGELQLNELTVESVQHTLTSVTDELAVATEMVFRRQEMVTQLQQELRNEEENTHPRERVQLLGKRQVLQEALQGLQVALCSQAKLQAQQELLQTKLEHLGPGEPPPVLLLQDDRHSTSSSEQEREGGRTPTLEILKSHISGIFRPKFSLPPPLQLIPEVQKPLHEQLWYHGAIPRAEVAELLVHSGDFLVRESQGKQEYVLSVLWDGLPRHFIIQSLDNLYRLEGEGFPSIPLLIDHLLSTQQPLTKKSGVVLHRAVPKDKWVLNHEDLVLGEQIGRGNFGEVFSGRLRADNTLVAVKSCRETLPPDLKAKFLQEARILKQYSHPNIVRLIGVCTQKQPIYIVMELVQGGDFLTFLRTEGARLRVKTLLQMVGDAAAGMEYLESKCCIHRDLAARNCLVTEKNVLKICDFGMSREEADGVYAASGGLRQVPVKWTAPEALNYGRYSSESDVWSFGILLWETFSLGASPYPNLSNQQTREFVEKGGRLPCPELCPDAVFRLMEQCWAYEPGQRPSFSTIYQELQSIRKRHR
Chain of AAK1 (Q2M2I8 whole entry): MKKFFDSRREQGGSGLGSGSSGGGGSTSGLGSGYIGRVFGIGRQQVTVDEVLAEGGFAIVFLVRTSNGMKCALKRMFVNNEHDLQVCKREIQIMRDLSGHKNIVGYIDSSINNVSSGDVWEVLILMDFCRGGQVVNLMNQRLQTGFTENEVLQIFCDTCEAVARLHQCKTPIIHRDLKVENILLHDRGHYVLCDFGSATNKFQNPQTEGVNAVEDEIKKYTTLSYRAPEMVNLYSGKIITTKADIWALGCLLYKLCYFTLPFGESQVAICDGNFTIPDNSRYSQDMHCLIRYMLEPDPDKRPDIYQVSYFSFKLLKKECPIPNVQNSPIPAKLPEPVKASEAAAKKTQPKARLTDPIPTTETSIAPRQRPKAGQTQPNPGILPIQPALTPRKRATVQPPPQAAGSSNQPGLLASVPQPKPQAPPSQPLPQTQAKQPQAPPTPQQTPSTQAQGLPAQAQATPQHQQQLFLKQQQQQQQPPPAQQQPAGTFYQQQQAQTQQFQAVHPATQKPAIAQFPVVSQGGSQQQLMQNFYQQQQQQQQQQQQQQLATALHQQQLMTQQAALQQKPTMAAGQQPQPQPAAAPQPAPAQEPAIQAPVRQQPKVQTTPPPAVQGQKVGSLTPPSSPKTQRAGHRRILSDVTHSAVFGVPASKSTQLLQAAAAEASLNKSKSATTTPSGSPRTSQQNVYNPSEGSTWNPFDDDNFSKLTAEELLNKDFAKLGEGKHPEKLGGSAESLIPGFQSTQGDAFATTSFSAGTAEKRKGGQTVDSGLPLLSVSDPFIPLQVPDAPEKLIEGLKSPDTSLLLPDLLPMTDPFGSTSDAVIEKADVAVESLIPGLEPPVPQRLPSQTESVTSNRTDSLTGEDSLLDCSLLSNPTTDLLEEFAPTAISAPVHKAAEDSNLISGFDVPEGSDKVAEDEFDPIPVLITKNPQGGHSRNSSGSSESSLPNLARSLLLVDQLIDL
Chain of CSF1R (FMS) (P07333 20-972): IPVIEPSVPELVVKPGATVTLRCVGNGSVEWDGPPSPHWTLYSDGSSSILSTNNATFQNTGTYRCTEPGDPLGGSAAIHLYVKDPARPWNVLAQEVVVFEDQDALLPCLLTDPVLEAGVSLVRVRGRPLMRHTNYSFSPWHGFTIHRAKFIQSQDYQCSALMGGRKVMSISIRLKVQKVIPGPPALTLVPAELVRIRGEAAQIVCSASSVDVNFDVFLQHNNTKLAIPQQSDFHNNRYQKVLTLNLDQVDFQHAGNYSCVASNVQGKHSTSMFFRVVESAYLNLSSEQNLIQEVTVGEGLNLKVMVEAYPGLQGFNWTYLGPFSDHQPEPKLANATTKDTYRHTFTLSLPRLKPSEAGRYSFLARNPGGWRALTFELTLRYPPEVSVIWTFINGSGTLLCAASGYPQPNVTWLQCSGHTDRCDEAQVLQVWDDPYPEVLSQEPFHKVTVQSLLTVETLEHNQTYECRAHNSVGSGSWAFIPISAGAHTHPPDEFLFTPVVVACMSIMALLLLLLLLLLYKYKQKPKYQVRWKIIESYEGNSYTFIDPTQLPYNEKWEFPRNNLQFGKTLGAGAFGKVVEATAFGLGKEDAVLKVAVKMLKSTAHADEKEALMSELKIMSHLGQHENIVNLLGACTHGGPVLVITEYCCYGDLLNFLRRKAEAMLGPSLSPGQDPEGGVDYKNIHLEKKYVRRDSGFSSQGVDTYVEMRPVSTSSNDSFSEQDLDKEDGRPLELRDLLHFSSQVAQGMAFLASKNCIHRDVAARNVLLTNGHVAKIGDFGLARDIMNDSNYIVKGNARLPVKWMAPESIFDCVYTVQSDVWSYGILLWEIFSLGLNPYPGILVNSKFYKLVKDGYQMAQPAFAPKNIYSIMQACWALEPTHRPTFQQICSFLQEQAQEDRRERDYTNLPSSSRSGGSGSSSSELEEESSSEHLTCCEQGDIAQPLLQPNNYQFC
Chain of MAPKAPK2 (P49137 whole entry): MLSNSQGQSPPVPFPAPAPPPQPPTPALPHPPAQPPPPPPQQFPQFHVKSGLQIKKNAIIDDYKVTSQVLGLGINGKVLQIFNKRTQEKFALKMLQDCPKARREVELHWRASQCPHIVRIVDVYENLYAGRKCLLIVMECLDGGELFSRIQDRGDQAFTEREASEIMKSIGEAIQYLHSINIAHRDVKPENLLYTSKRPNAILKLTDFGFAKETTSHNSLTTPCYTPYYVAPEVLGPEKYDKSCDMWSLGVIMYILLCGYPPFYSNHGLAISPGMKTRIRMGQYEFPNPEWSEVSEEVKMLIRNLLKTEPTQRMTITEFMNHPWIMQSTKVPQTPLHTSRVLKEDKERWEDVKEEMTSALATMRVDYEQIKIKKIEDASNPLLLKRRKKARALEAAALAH
Chain of FGR (P09769 whole entry): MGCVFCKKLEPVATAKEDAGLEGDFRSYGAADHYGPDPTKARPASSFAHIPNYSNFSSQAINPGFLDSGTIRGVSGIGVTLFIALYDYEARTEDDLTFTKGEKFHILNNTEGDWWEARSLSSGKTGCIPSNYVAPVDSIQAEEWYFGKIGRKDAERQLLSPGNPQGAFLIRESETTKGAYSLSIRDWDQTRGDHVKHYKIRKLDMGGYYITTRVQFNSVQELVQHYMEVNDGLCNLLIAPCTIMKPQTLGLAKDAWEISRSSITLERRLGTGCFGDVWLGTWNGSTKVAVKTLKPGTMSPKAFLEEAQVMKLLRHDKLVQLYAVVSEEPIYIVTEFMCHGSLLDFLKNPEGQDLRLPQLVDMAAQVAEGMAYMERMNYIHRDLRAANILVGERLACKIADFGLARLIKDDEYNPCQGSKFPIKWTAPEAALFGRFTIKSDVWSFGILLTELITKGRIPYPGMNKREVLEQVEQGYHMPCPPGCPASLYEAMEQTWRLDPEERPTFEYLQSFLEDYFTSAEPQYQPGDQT

## C#CCOc1ccc(Nc2ncc(Cl)c(Nc3ccccc3NC(=O)C=C)n2)c(OC)c1 [Compound 6]
[1]; [16]
  inhibition at 1 µM: 33%
[1]; AAK1, 1 µM, LanthaScreen Binding, listed as WEL028, 1 µM
  Inhibition at 1 µM (%): 30%
[1]; read-out: Inhibition at 1 µM (%), AAK1, 1 µM, LanthaScreen Binding
  inhibition at 1 µM: 35%
[2]; 1 h
  inhibition at 1 µM: 24%
[2]; [17]
  inhibition at 1 µM: 24%
[3]
  inhibition at 1 µM: 1%
[4]; [16]
  inhibition at 1 µM: 11%
[4]; CSF1R (FMS), 1 µM, ZLYTE, ATP Km app, listed as WEL028, 1 µM
  Inhibition at 1 µM (%): 8%
[4]; read-out: Inhibition at 1 µM (%), CSF1R (FMS), 1 µM, ZLYTE, ATP Km app
  inhibition at 1 µM: 13%
[5]; [16]
  inhibition at 1 µM: 3%
[5]; read-out: Inhibition at 1 µM (%), DDR2, 1 µM, LanthaScreen Binding
  inhibition at 1 µM: 2%
[6]; [16]
  inhibition at 1 µM: 10%
[6]; FGR, 1 µM, ZLYTE, ATP Km app, listed as WEL028, 1 µM
  Inhibition at 1 µM (%): 12%
[6]; read-out: Inhibition at 1 µM (%), FGR, 1 µM, ZLYTE, ATP Km app
  inhibition at 1 µM: 7%
[7]
  pIC50: 7.90
[7]; [16]
  inhibition at 1 µM: 108%
[7]; GAK, 1 µM, LanthaScreen Binding, listed as WEL028, 1 µM
  Inhibition at 1 µM (%): 109%
[7]; IC50 on that kinase divided by IC50 on FES^S700C
  Apparent fold selectivity: 3 fold
[7]; read-out: Inhibition at 1 µM (%), GAK, 1 µM, LanthaScreen Binding
  inhibition at 1 µM: 108%
[8]; [16]
  inhibition at 1 µM: -1%
[8]
  Inhibition at 1 µM (%): -2%
[8]; listed as WEL028, 1 µM
  Inhibition at 1 µM (%): 1%
[9]; 1 h
  inhibition at 1 µM: 4%
[9]; [17]
  inhibition at 1 µM: 4%
[10]
  inhibition at 1 µM: 2%
[11]; [16]
  inhibition at 1 µM: 4%
[11]; MAPK7 (ERK5), 1 µM, ZLYTE, ATP Km app, listed as WEL028, 1 µM
  Inhibition at 1 µM (%): 3%
[11]; read-out: Inhibition at 1 µM (%), MAPK7 (ERK5), 1 µM, ZLYTE, ATP Km app
  inhibition at 1 µM: 4%
[12]; [16]
  inhibition at 1 µM: 7%
[12]; MAPKAPK2, 1 µM, ZLYTE, ATP Km app, listed as WEL028, 1 µM
  Inhibition at 1 µM (%): 5%
[12]; read-out: Inhibition at 1 µM (%), MAPKAPK2, 1 µM, ZLYTE, ATP Km app
  inhibition at 1 µM: 8%
[13]; [16]
  inhibition at 1 µM: -11%
[13]
  Inhibition at 1 µM (%): -13%
[13]; listed as WEL028, 1 µM
  Inhibition at 1 µM (%): -9%
[14]
  inhibition at 0.1 µM: ~10%
[15]; live FES^S700C HL-60 macrophages, 1 h, WEL033 1 µM post-labeling, n = 3, read-out: pIC50, relative FES labeling (converted)
  IC50: 3.98 nM
[15]; log[WEL028] (M) -6
  Relative FES labeling (%) Mean: 6.696%
[15]; log[WEL028] (M) -7
  Relative FES labeling (%) Mean: 2.482%
[15]; log[WEL028] (M) -7.52288
  Relative FES labeling (%) Mean: 5.093%
[15]; log[WEL028] (M) -8
  Relative FES labeling (%) Mean: 18.898%
[15]; log[WEL028] (M) -8.52288
  Relative FES labeling (%) Mean: 58.4122%
[15]; log[WEL028] (M) -9
  Relative FES labeling (%) Mean: 92.5647%
